Among the data in patent US8183239B2, “Substituted piperazines and piperidines as modulators of the neuropeptide Y2 receptor” (Janssen Pharmaceutica NV, priority 2005, dated 2012) are IC50 values, retold here.

This assay deals with T1, Y2 receptors (Homo sapiens, UniProt P49146).
T1 construct: endogenous in cells; host or cells: KAN-Ts cells (membranes)
T1 sequence (P49146 1-381): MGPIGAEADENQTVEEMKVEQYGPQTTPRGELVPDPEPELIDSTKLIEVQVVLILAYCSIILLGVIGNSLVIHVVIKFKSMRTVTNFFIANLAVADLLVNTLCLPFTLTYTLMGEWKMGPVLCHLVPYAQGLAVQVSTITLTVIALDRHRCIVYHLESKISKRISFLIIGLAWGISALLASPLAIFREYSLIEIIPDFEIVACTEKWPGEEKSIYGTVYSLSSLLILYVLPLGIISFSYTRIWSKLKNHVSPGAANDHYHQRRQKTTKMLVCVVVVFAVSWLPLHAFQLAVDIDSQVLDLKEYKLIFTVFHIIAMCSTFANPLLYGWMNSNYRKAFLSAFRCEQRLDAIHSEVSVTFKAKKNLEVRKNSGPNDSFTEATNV
In words: Radioligand binding assay ([125I]PYY, KAN-Ts cell membranes). Conditions: Table 1, [125I]PYY 80 pM, average of results, read-out: IC50. Put shortly:
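IC50 values are means of three to eight experiments run in duplicate, fitted sigmoidally against specific binding (defined by […]). Competition used 80 pM [^125I]PYY for 1 h at room temperature on KAN-Ts membranes carrying native Y2, with filtration and scintillation counting.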
As to `CCNC(=O)C(c1ccccc1)C1CCN(c2ccc(NC(=O)[C@H]3CCOC3)cc2C#N)CC1` (stereo partly drawn) [Example 133, (S)-Tetrahydro-furan-3-carboxylic acid {3-cyano-4-[4-(ethylcarbamoyl-phenyl-methyl)-piperidin-1-yl]-phenyl}-amide], the IC50 came out at 60 nM. Consider `CCN(CC)C(=O)C(c1ccccc1)C1CCN(c2ccc(NC(=O)Cc3cscc3C)cc2F)CC1` (stereo not shown) [Example 134, N,N-Diethyl-2-(1-{2-fluoro-4-[2-(4-methyl-thiophen-3-yl)-acetylamino]-phenyl}-piperidin-4-yl)-2-phenyl-acetamide], for which the IC50 was 80 nM. Next, `CCN(CC)C(=O)C(c1ccccc1)N1CCN(c2ccc(NC(=O)C3CCC3)cc2F)CC1` (stereo not shown) [Example 135, Cyclobutanecarboxylic acid {4-[4-(diethylcarbamoyl-phenyl-methyl)-piperazin-1-yl]-3-fluoro-phenyl}-amide]: 60 nM; `CCN(CC)C(=O)C(c1ccccc1)N1CCN(c2ccc(NC(=O)C3(C)CCCCC3)cc2F)CC1` (stereo not shown) [Example 136, 1-Methyl-cyclohexanecarboxylic acid {4-[4-(diethylcarbamoyl-phenyl-methyl)-piperazin-1-yl]-3-fluoro-phenyl}-amide]: 70 nM. Next, `CC[C@H](C)C(=O)Nc1ccc(N2CCN(C(C(=O)N(CC)CC)c3ccccc3)CC2)c(F)c1` (stereo partly drawn) [Example 137, (S)—N-{4-[4-(Diethylcarbamoyl-phenyl-methyl)-piperazin-1-yl]-3-fluoro-phenyl}-2-methyl-butyramide]: 70 nM.

In the case of `CCC(CC)C(=O)Nc1ccc(N2CCC(=C(C(=O)N(CC)CC)c3cccc(F)c3)CC2)c(F)c1` [Example 138, N-(4-{4-[Diethylcarbamoyl-(3-fluoro-phenyl)-methylene]-piperidin-1-yl}-3-fluoro-phenyl)-2-ethyl-butyramide], the 50% inhibitory concentration (IC50) worked out at 70 nM. Turning to `CCN(CC)C(=O)C(c1ccccc1)N1CCN(c2ccc(NC(=O)C(C)(C)c3ccc(Cl)cc3)cc2F)CC1` (stereo not shown) [Example 139, 2-(4-Chloro-phenyl)-N-{4-[4-(diethylcarbamoyl-phenyl-methyl)-piperazin-1-yl]-3-fluoro-phenyl}-isobutyramide], the IC50 stood at 72 nM. Next, `CCN(CC)C(=O)C(c1ccccc1)C1CCN(c2ccc(NC(=O)C(C)C)cc2F)CC1` (stereo not shown) [Example 140, N-{4-[4-(Diethylcarbamoyl-phenyl-methyl)-piperidin-1-yl]-3-fluoro-phenyl}-isobutyramide]: 80 nM; `CCN(CC)C(=O)C(c1ccccc1)C1CCN(c2ccc(NC(=O)c3cccnc3SC)cc2F)CC1` (stereo not shown) [Example 141, N-{4-[4-(Diethylcarbamoyl-phenyl-methyl)-piperidin-1-yl]-3-fluoro-phenyl}-2-methylsulfanyl-nicotinamide]: 80 nM; `CCNC(=O)C(c1ccccc1)C1CCN(c2c(F)cc(NC(=O)C(CC)CC)cc2F)CC1` (stereo not shown) [Example 142, 2-Ethyl-N-{4-[4-(ethylcarbamoyl-phenyl-methyl)-piperidin-1-yl]-3,5-difluoro-phenyl}-butyramide]: 75 nM. Next, `CCN(CC)C(=O)C(c1ccccc1)N1CCN(c2ccc(NC(=O)C3CCCC3)cc2F)CC1` (stereo not shown) [Example 143, Cyclopentanecarboxylic acid {4-[4-(diethylcarbamoyl-phenyl-methyl)-piperazin-1-yl]-3-fluoro-phenyl}-amide]: 80 nM. Next, `CCN(CC)C(=O)C(c1ccccc1)C1CCN(c2ccc(NC(=O)c3ccsc3C)cc2F)CC1` (stereo not shown) [Example 144, 2-Methyl-thiophene-3-carboxylic acid {4-[4-(diethylcarbamoyl-phenyl-methyl)-piperidin-1-yl]-3-fluoro-phenyl}-amide]: 100 nM. With `CCN(CC)C(=O)C(c1ccccc1)C1CCN(c2ccc(NC(=O)c3cccn3C)cc2F)CC1` (stereo not shown) [Example 145, 1-Methyl-1H-pyrrole-2-carboxylic acid {4-[4-(diethylcarbamoyl-phenyl-methyl)-piperidin-1-yl]-3-fluoro-phenyl}-amide], the IC50 stood at 100 nM.
